The values below come from patent publication US10730886B2, “Compound having effect of inhibiting platelet aggregation and salt thereof, and composition for preventing or treating thrombotic diseases, containing same” (SHIN POONG PHARMACEUTICAL CO., LTD., priority 2015, dated 2020).

Structures are written as SMILES.

The subject of the first series is carotid artery shear stress model. In words: Carotid artery shear stress model, amount of thrombus. Particulars: rat, 50 mg/kg oral, twice a day for 3 days after operation. Type of series: in vivo, Sprague-Dawley rats. As for the experimental part: Vehicle (0.5% methylcellulose), clopidogrel (8 mg/kg), aspirin (50 mg/kg) or a candidate substance was orally administered to male Sprague-Dawley rats (250 to 300 g). 2 hours after administration, the rats were anesthetized by ketamine/rompun (ketamine/xylazine) cocktail 0.1 ml/100 g. Except for the normal control group, the right cervical skin of the experimental animals was incised to expose the common carotid artery. A surgical tube with a length of 1 mm and an inside diameter of 0.58 mm was inserted into the exposed carotid artery and tied with a single thread. The exposed site and the operation site were treated with an anti-adhesion agent, and then sutured for the animals to recover. After the surgery, vehicle, clopidogrel, aspirin or a candidate substance was orally administered to the rats twice a day for 3 days. On the fourth day, 2 hours after the final administration, urethane (100 mg/300 μl/100 g) was administered intraperitoneally to the rats to induce anesthesia, and the operation site was opened to separate a total of 1 cm of the blood vessel, 5 mm above and 5 mm below the surgical tube. The separated blood vessel was perfused with 0.2 ml of 0.9% saline at 0.3 ml/min to remove the remaining blood, and then maintained in 1 ml of protein lysis buffer (NaOH 2 g, Na2CO3 0.1 g in 500 ml D.W). After collected, the blood vessel thrombus was double-boiled in boiling water together with the protein lysis buffer. 200 μl of the reaction solution (10 ml bicinchoninic acid solution+200 μl 4% aqueous solution of copper sulfate) was added to 10 μl of the heated thrombus, and the mixture was reacted at 37° C. for 30 minutes and quantified with an ELISA reader (562 nm).
For `CC(=O)Oc1ccccc1C(=O)O` [Aspirin, aspirin, reference compound], the “Amount of thrombus (mg, Mean ± SEM)” value worked out at 0.092 ± 0.007 mg.

The next series concerns Sprague-Dawley rats. In words: Bleeding side effect (tail bleeding time) after single oral administration. As to conditions: rat, 25 μM (so in the source), tail cut 1 hour after administration. Type of series: in vivo. As for the experimental part: Male Sprague-Dawley rats (250 to 300 g) were fasted overnight and then were orally administered with the candidate substances at each concentration. After 1 hour, the rats were anesthetized by intraperitoneal injection of urethane (1.25 g/kg). The 3 mm portion of the tail tip of the rats was cut and carefully wiped every 30 seconds. Bleeding time was measured in […] until no more blood was drawn, and when the bleeding lasted longer than 30 minutes, the bleeding time was recorded as 30 minutes.
For `CC(=O)Oc1ccccc1C(=O)O` [Aspirin, aspirin, reference compound], the “Bleeding time” value is recorded as 9.5 ± 0.8 min.

The series is the same for the next values; noted with them: rat, 100 μM (so in the source), tail cut 1 hour after administration.
As to `CC(=O)Oc1ccccc1C(=O)O` [Aspirin, aspirin, reference compound], the “Bleeding time” value is on record as 15.1 ± 0.8 min.

The test system of the next series is ICR mouse.
Experiment: not given
Particulars: male, in vivo, po, 100 mg/kg, 7 days.
With `CC(=O)Oc1ccccc1C(=O)O` [Aspirin, aspirin, reference compound], the “Bleeding time” value was 12.3 ± 0.7 min; the “Bleeding time (min)” value is given as “exceeded 12 min”; the “bleeding time delayed, times compared with the control group” value is recorded as “about 7.6 times”.

In the next series the test system is human liver cells (HepG2). In words: Cytotoxicity in human liver cells HepG2 (WST-1). Type of series: cell-based. Particulars: HepG2, 40 mM, control. As for the experimental part: 5-3. Evaluation of Cytotoxicity of Candidate Substances Using Human Liver Cells
Experiments were conducted to evaluate cytotoxicity in human liver cells (HepG2). HepG2 cells, which are human liver carcinoma cell lines, were cultured in DMEM (Dulbecco's minimum essential medium) supplemented with 10% FBS (fetal bovine serum) and 1% Penicillin/Streptomycin at 37° C. and 5% CO2. The cells were cultured in a 48 well plate at 4×10^4 cells/well for 24 hours and then used in the experiments. The HepG2 cells were treated with the candidate substances (250 μM) for 18 hours, and then the medium was removed and WST-1 was added, followed by shading for 3 hours for reaction. After 3 hours, the supernatant was taken and absorbance was measured at 450 nm. Cell viability was calculated by comparing the absorbance measured after adding WST-1 to HepG2 cells not treated with the candidate substances. Acetaminophen (40 mM) was used as a control.
Consider `CC(=O)Nc1ccc(O)cc1` [Acetaminophen, reference compound], for which the “Cell vaibility (%)” value turned out to be 35.3 ± 3.5%.

In the next series the test system is Human Platelet Rich Plasma (PRP). In words: Shear stress-induced platelet aggregation inhibition in human platelet rich plasma (PRP), cone-plate viscometer. In kind it is cell-based. As to conditions: Homo sapiens, Platelet, Table 1 summary bins; concentration and matrix not given; read-out: Inhibitory effect of shear stress-induced platelet aggregation. As for the experimental part:
1-1. Measurement of Platelet Aggregation Inhibitory Effect Using Human Platelet Rich Plasma (PRP)
Blood was collected from the veins of healthy male volunteers who had not taken any medication for more than 2 weeks. All related studies were conducted under the approval of the Seoul National University Institutional Review Board (IRB No. 1305/001-016). During the whole process of study the use of glass containers or glass pipettes was avoided, and the experiments were performed at room temperature. To separate platelet rich plasma (PRP), the blood was collected with 3.2% sodium citrate as an anticoagulant. The whole blood was centrifuged at 150 g for 15 minutes to obtain the supernatant (PRP), and the residue was centrifuged at 2,000 g for 20 minutes to obtain platelet poor plasma (PPP). The number of platelets of the PRP thus obtained was counted with an optical microscope using a hemacytometer. PRP was diluted with PPP so as to include 3×10^8 platelets per 1 ml, and then used in the experiments. PRP was put on a cone-plate viscometer (RotoVisco 1, Thermo Fischer Scientific, USA), and shear stress was applied to the PRP at 37° C. for 3 minutes at a shear rate of 10,800 s^−1. In order to evaluate candidate substances, prior to the induction of platelet aggregation, 598.8 μl of PRP was treated with 1.2 μl of 25 μM candidate substance and incubated at 37° C. for 3 minutes using a thermomixer. After applying the shear stress, 20 μl of PRP was fixed in 280 μl of a suspension buffer containing 0.5% glutaraldehyde (134 mM NaCl, 2.9 mM KCl, 1.0 mM MgCl2.6H2O, 10.0 mM HEPES, 5.0 mM dextrose, 12.0 mM NaHCO3, 0.34 mM Na2HPO4, 0.3% BSA, pH 7.4). Then, the number of single platelets in the suspension was counted using a hemacytometer. The degree of inhibition by the candidate substance was calculated according to the following formula (1). The degree of inhibition was determined by the method described below. No shear stress-applied group served as a control, and only shear stress-applied group served as positive control. Degree of inhibition (%)=[(1−A/B)×100]/[(1−A/C)×100] Formula 1
A: Number of single platelets in the shear stress-applied sample after treatment with candidate substance
B: Number of single platelets in the control group with no shear stress applied
C: Number of single platelets in the positive control group with only shear stress applied
As to `O=C(c1ccc(O)c(O)c1)N1CCC(c2noc3ccc(F)cc23)CC1` [Example 2, (3,4-Dihydroxyphenyl)(4-(5-fluorobenzo[d]isoxazol-3-yl)piperidin-1-yl)methanone], the inhibition at 25 µM was 20 to 30%.
As to `O=C(NCC1CN(Cc2ccc(F)cc2)CCO1)c1ccc(O)c(O)c1` (centres unmarked) [Example 3, N-((4-(4-Fluorobenzyl)morpholin-2-yl)methyl)-3,4-dihydroxybenzamide], the inhibition at 25 µM is at least 30%.
As to `O=C(NC1CCSC1=O)c1ccc(O)c(O)c1` (centres unmarked) [Example 4, 3,4-Dihydroxy-N-(2-oxotetrahydrothiophen-3-yl)benzamide], the inhibition at 25 µM is at least 30%.
Regarding `O=C(NCCCCCCCCCNC(=O)c1ccc(O)c(O)c1)c1ccc(O)c(O)c1` [Example 5, N,N′-(Nonan-1,9-diyl)bis(3,4-dihydroxybenzamide)], the inhibition at 25 µM fell in the range of 20 to 30%.
On to `O=C(c1ccc(O)c(O)c1)N1CCC(OC(c2ccc(Cl)cc2)c2ccccn2)CC1` (centres unmarked) [Example 6, (4-((4-Chlorophenyl)(pyridin-2-yl)methoxy)piperidin-1-yl)(3,4-dihydroxyphenyl)methanone], for which the inhibition at 25 µM lay within 20 to 30%.
Regarding `O=C(c1ccc(O)c(O)c1)N1CCC(O[C@@H](c2ccc(Cl)cc2)c2ccccn2)CC1` [Example 7, (S)-(4-((4-Chlorophenyl)(pyridin-2-yl)methoxy)piperidin-1-yl)(3,4-dihydroxyphenyl)methanone], the inhibition at 25 µM was in the range of 20 to 30%.
Consider `COC(=O)[C@H](Cc1c[nH]c2ccccc12)NC(=O)c1ccc(O)c(O)c1` [Example 8, (S)-Methyl-2-(3,4-dihydroxybenzamido)-3-(1H-indol-3-yl)propanoate], for which the inhibition at 25 µM was in the range of 20 to 30%.
With `CCCc1nn(C)c(C(N)=O)c1NC(=O)c1ccc(O)c(O)c1` [Example 9, 4-(3,4-Dihydroxybenzamido)-1-methyl-3-propyl-1H-pyrazole-5-carboxamide], the inhibition at 25 µM was in the range of 20 to 30%.
In the case of `Cc1occc(=O)c1OC(=O)c1ccc(O)c(O)c1` [Example 10, 2-Methyl-4-oxo-4H-pyran-3-yl 3,4-dihydroxybenzoate], the inhibition at 25 µM was 20 to 30%.
Same read-out and setting: under `O=C(c1ccc(O)c(O)c1)N1CCN(c2ccccc2)CC1` [Example 11, (3,4-Dihydroxyphenyl)(4-phenylpiperazin-1-yl)methanone] stands at least 30%; under `C#Cc1cccc(NC(=O)c2ccc(O)c(OC)c2)c1` [Example 16, N-(3-Ethynylphenyl)-4-hydroxy-3-methoxybenzamide], at least 30%.
The same measure, in the same setting: the same measure for `CNC(=O)c1cc(Oc2ccc(NC(=O)c3ccc(O)c(OC)c3)cc2)ccn1` [Example 17, 4-(4-(4-Hydroxy-3-methoxybenzamido)phenoxy)-N-methylpicolinamide]: 20 to 30%; for `COc1cc(C(=O)N2CCC(OC(c3ccc(Cl)cc3)c3ccccn3)CC2)ccc1O` (centres unmarked) [Example 18]: at least 30%; for `COc1cc(C(=O)NCc2c(CO)cnc(C)c2O)ccc1O` [Example 19, 4-Hydroxy-N-((3-hydroxy-5-(hydroxymethyl)-2-methylpyridin-4-yl)methyl)-3-methoxybenzamide]: 20 to 30%.
For `O=C(c1cc(O)ccc1O)N1CCC(OC(c2ccc(Cl)cc2)c2ccccn2)CC1` (centres unmarked) [Example 21, (4-((4-Chlorophenyl)(pyridin-2-yl)methoxy)piperidin-1-yl)(2,5-dihydroxyphenyl)methanone], the inhibition at 25 µM lay within 20 to 30%.
`O=C(NCC1CN(Cc2ccc(F)cc2)CCO1)c1cc(O)ccc1O` (centres unmarked) [Example 22, N-((4-(4-Fluorobenzyl)morpholin-2-yl)methyl)-2,5-dihydroxybenzamide]: the inhibition at 25 µM is at least 30%.
On the same count and under the same terms, the same measure for `COc1ccc(CCNC(=O)c2cc(O)ccc2O)cc1OC` [Example 24, N-(3,4-Dimethoxyphenethyl)-2,5-dihydroxybenzamide]: 20 to 30%; for `O=C(NCCc1cccs1)c1cc(O)ccc1O` [Example 25, 2,5-Dihydroxy-N-(2-(thiophen-2-yl)ethyl)benzamide]: 20 to 30%.
Take `O=C(NC1CCSC1=O)c1cc(O)ccc1O` (centres unmarked) [Example 26, 2,5-Dihydroxy-N-(2-oxotetrahydrothiophen-3-yl)benzamide]: the inhibition at 25 µM fell in the range of 20 to 30%.
